Results published in ChEMBL document CHEMBL5241112, “Insights into the recent progress in the medicinal chemistry of pyranopyrimidine analogs” (RSC Med Chem, 2022).
In brackets after ≈: the same amount, converted by molar mass.

What was measured:
[1] = Antioxidant activity assessed as DPPH radical scavenging activity at 100 ug/ml incubated for 30 mins by spectrophotometric analysis; type: functional; details: dose 100.0 µg/ml
Staphylococcus aureus [2] = assay: Antibacterial activity against Staphylococcus aureus assessed as diameter of inhibition zone at 100 ug/ml by disc diffusion method; type: functional; details: read-out: DIZ
Klebsiella pneumoniae [3] = assay: Antibacterial activity against Klebsiella pneumoniae assessed as diameter of inhibition zone at 100 ug/ml by disc diffusion method; type: functional; details: read-out: DIZ
Bacillus subtilis = assay: Antibacterial activity against Bacillus subtilis assessed as diameter of inhibition zone at 100 ug/ml by disc diffusion method; type: functional; details: read-out: DIZ
Escherichia coli [4] = assay: Antibacterial activity against Escherichia coli assessed as diameter of inhibition zone at 100 ug/ml by disc diffusion method; type: functional; details: read-out: DIZ
Candida albicans [5] = assay: Antifungal activity against Candida albicans assessed as diameter of inhibition zone incubated for 48 hrs by agar well diffusion method; type: functional
Escherichia coli [6] = assay: Antibacterial activity against Escherichia coli NCIM 2066 assessed as diameter of inhibition zone incubated for 24 hrs by agar well diffusion method; type: functional
Staphylococcus aureus [7] = assay: Antibacterial activity against Staphylococcus aureus NCIM 2654 assessed as diameter of inhibition zone incubated for 24 hrs by agar well diffusion method; type: functional
[8] = Antioxidant activity assessed as DPPH radical scavenging activity at 12 ug incubated for 30 mins by spectrophotometric analysis; type: functional; details: dose 12.0 µg
Candida albicans [9] = assay: Antifungal activity against Candida albicans assessed as diameter of inhibition zone at 100 ug/ml by agar disc diffusion method; type: functional; details: read-out: DIZ
Aspergillus flavus = assay: Antifungal activity against Aspergillus flavus assessed as diameter of inhibition zone at 100 ug/ml by agar disc diffusion method; type: functional; details: read-out: DIZ
[10] = Antioxidant activity assessed as NO radical scavenging activity; type: functional
[11] = Antioxidant activity assessed as H2O2 radical scavenging activity; type: functional
[12] = Antioxidant activity assessed as DPPH radical scavenging activity; type: functional
[13] = Antioxidant activity assessed as DPPH radical scavenging activity at 75 ug/ml incubated for 30 mins by spectrophotometric analysis; type: functional; details: dose 75.0 µg/ml
Salmonella typhimurium = assay: Antimicrobial activity against Salmonella typhimurium ATCC 19430 assessed as diameter of inhibition zone at 20 mg/ml incubated for 24 hrs by disk diffusion method; type: functional, Salmonella enterica subsp. enterica serovar Typhimurium; details: Salmonella enterica, read-out: DIZ
Klebsiella pneumoniae [14] = assay: Antimicrobial activity against Klebsiella pneumoniae ATCC 15380 assessed as diameter of inhibition zone at 20 mg/ml incubated for 24 hrs by disk diffusion method; type: functional; details: read-out: DIZ

O=c1c(C2c3c(O)ncnc3Oc3[nH]nc(-c4ccccc4)c32)coc2ccccc12 (configuration not stated)
Activity [1]: 87.5%

CCOC(=O)C1=C(C)Oc2nc(C)n(Cc3cn(-c4ccc([N+](=O)[O-])cc4)nn3)c(=O)c2C1c1ccc([N+](=O)[O-])cc1 (configuration not stated)
zone of inhibition at 100 µg/mL (Staphylococcus aureus [2]): 14 mm | zone of inhibition at 100 µg/mL (Klebsiella pneumoniae [3]): 14 mm | zone of inhibition at 100 µg/mL (Bacillus subtilis): 12.5 mm | zone of inhibition at 100 µg/mL (Escherichia coli [4]): 14.5 mm

COc1ccc(C2c3c(C)n[nH]c3Oc3[nH]c(=O)[nH]c(=O)c32)cc1 (configuration not stated)
diameter of the inhibition zone (DIZ) (Candida albicans [5]): 27 mm | diameter of the inhibition zone (DIZ) (Escherichia coli [6]): 19 mm | diameter of the inhibition zone (DIZ) (Staphylococcus aureus [7]): 27 mm

Cc1ccc(C2c3c(C)n[nH]c3Oc3[nH]c(=O)[nH]c(=O)c32)cc1 (configuration not stated)
diameter of the inhibition zone (DIZ) (Candida albicans [5]): 27 mm | Activity [8]: 71.9% | diameter of the inhibition zone (DIZ) (Escherichia coli [6]): 23 mm | diameter of the inhibition zone (DIZ) (Staphylococcus aureus [7]): 25 mm

Cc1n[nH]c2c1C(c1ccccc1)c1c([nH]c(=O)[nH]c1=O)O2 (configuration not stated)
diameter of the inhibition zone (DIZ) (Candida albicans [5]): 23 mm | Activity [8]: 65.8% | diameter of the inhibition zone (DIZ) (Escherichia coli [6]): 14 mm | diameter of the inhibition zone (DIZ) (Staphylococcus aureus [7]): 18 mm

CC(=O)N1CCN(c2ccc(OCC3COC(Cn4ccnc4)(c4ccc(Cl)cc4Cl)O3)cc2)CC1 (configuration not stated) [KETOCONAZOLE]
zone of inhibition at 100 µg/mL (Candida albicans [9]): 20.5 mm | zone of inhibition at 100 µg/mL (Aspergillus flavus): 18.5 mm

CCOC(=O)C1=C(C)Oc2nc(C)n(Cc3cn(-c4ccc(Cl)cc4)nn3)c(=O)c2C1c1ccc([N+](=O)[O-])cc1 (configuration not stated)
zone of inhibition at 100 µg/mL (Staphylococcus aureus [2]): 15 mm | zone of inhibition at 100 µg/mL (Klebsiella pneumoniae [3]): 16.5 mm | zone of inhibition at 100 µg/mL (Candida albicans [9]): 17.5 mm | zone of inhibition at 100 µg/mL (Aspergillus flavus): 17.5 mm | zone of inhibition at 100 µg/mL (Bacillus subtilis): 13 mm | zone of inhibition at 100 µg/mL (Escherichia coli [4]): 17 mm

Nc1ncnc2c1C(c1ccc(Cl)cc1)c1ccc(O)cc1O2 (configuration not stated)
IC50 [10]: 50.32 µg/mL (≈ 154 µM) | IC50 [11]: 53.54 µg/mL (≈ 164 µM) | IC50 [12]: 36.82 µg/mL (≈ 113 µM)

CCOC(=O)C1=C(C)Oc2nc(C)n(Cc3cn(-c4cccc(C(F)(F)F)c4)nn3)c(=O)c2C1c1ccc([N+](=O)[O-])cc1 (configuration not stated)
zone of inhibition at 100 µg/mL (Klebsiella pneumoniae [3]): 15.5 mm | zone of inhibition at 100 µg/mL (Bacillus subtilis): 12 mm | zone of inhibition at 100 µg/mL (Escherichia coli [4]): 14 mm

N=c1c2c(ncn1N)Oc1[nH]nc(-c3ccccc3)c1C2c1coc2ccccc2c1=O (configuration not stated)
Activity [13]: 85.5%

N#CC1=C(N)Oc2[nH]c(=O)[nH]c(=O)c2C1c1ccc[nH]1 (configuration not stated)
zone of inhibition at 20000 µg/mL (Salmonella typhimurium): 20 mm | zone of inhibition at 20000 µg/mL (Klebsiella pneumoniae [14]): 16 mm

Nc1ncnc2c1C(c1ccc([N+](=O)[O-])cc1)c1ccc(O)cc1O2 (configuration not stated)
IC50 [10]: 50.32 µg/mL (≈ 150 µM) | IC50 [11]: 53.54 µg/mL (≈ 159 µM) | IC50 [12]: 34.34 µg/mL (≈ 102 µM)

O=C1O[C@H]([C@@H](O)CO)C(O)=C1O
Activity [13]: 89.4% | Activity [1]: 97.6% | Activity [8]: 94.6%

Nc1ncnc2c1C(c1ccccc1O)c1ccc(O)cc1O2 (configuration not stated)
IC50 [10]: 50.32 µg/mL (≈ 164 µM) | IC50 [11]: 53.54 µg/mL (≈ 174 µM) | IC50 [12]: 36.82 µg/mL (≈ 120 µM)
